The record followed here is ChEMBL document CHEMBL1140449, “Preliminary studies of new proteasome inhibitors in the tumor targeting approach: synthesis and in vitro cytotoxicity” (J Med Chem, 2005).

A short description of assay [1]: Inhibitory concentration for cytotoxic activity against human ocular melanoma IPC227F cells upon incubation for 48 h at 37 °C.
The nature of assay [2]: Inhibitory concentration for cytotoxic activity against human ocular melanoma IPC227F cells upon incubation for 48 h at 37 °C; No inhibition.

Where a SMILES comes first, the peptide text is derived from it. The star is where a group is joined. Cbz = O=C(OCc1ccccc1)*

In assay [1], `CC(C)C[C@@H](C=O)NC(=O)[C@H](CC(C)C)NC(=O)[C@H](CC(C)C)NC(=O)OCc1ccccc1` [MG-132] (Cbz-Leu-Leu-Leu-aldehyde) displayed a 50% inhibitory concentration (IC50) of 77 nM. As to `CCN(CC)CCNC(=O)c1ccc(C(=O)N[C@@H](Cc2ccccc2)C(=O)N[C@H](C=O)CC(C)C)cc1`, the IC50 in assay [1] came to 20900 nM. Against the preceding molecule, the IC50 is about 270-fold higher. In the case of `CCN(CC)CCNC(=O)c1ccc(C(=O)N[C@H](C=O)CC(C)C)cc1`, in assay [2], the IC50 result is given as “Not Active”. Regarding `CCN(CC)CCNC(=O)c1ccc(C(=O)N[C@@H](Cc2ccccc2)C(=O)N[C@@H](CC(C)C)C(=O)N[C@H](C=O)CC(C)C)cc1`, the midpoint of inhibition in assay [1], the IC50, lay at 11900 nM. On to `CCN(CC)CCNC(=O)c1ccc(C(=O)N[C@@H](CC(C)C)C(=O)N[C@H](C=O)CC(C)C)cc1`, for which, in assay [2], the IC50 entry is on record as “Not Active”.

Turning to `CCN(CC)CCNC(=O)c1ccc(C(=O)N[C@@H](CC(C)C)C(=O)N[C@@H](Cc2ccccc2)C(=O)N[C@H](C=O)CC(C)C)cc1`, the 50% inhibitory concentration (IC50) in assay [1] amounted to 2840 nM. Molecule `CCN(CC)CCNC(=O)c1ccc(C(=O)N[C@@H](CC(C)C)C(=O)N[C@@H](CC(C)C)C(=O)N[C@H](C=O)CC(C)C)cc1` showed an IC50 in assay [1] of 640 nM.
